Patent publication US8440612B2, “Controlling giardiosis” (Bayer Intellectual Property GmbH, priority 2008, dated 2013)
Values joined by “and” are separate entries in the source; they are usually repeats but may differ in a detail not shown here. Identical values can stand only once.

Tests used:
Giardia duodenalis [1] = test: Giardia cyst excretion in infected Beagle puppies, single oral dose (Biological Example 1); format: in vivo
Source text: Beagle puppies aged 10-11 weeks which had 11 days to settle in the animal centre before being infected were infected orally with 50 000 Giardia duodenalis cysts. The cysts for the infection were obtained with the aid of a sucrose gradient from the faeces of dogs which excreted Giardia cysts and stored at 4 degrees centigrade in Bacto-Casitone medium for no longer than 2 weeks. From day 10 after the infection, the puppies were kept in individual cages in order to collect the daily total faeces for each individual. The quantitative determination of the cyst excretion was performed in the 4 days prior to treatment (day −3 to 0), and the puppies were divided randomly into two groups, taking into consideration the cyst excretion. […] The quantitative determination of the cyst excretion was continued from day 1 to day 8 after the treatment.
Results: The activity was calculated using the following formula:
(§1) Method: The quantitative determination of the cyst excretion was performed using a modified version of Hewlett (18): 4 g faeces were dissolved in 100 ml of water, sieved and allowed to sediment. The sediment was applied to a 1 M sucrose gradient (specific gravity 1.13), and the cysts, which were concentrated at the sucrose/water boundary layer after the centrifugation were pipetted off. After a wash step followed by centrifugation, the cysts in the pellet were counted. To this end, an aliquot of the pellet was counted under the microscope, and the number of cysts per g faeces was calculated.

Giardia duodenalis [2] = test: Giardia cyst excretion in infected Beagle puppies, oral dose on three successive days (Biological Example 2); format: in vivo
Protocol: as §1
Beagle puppies aged 11-15 weeks which had at least 2 weeks to settle in the animal centre before being infected were infected orally with 50 000 Giardia duodenalis cysts before the beginning of the study. The cysts for the infection were obtained with the aid of a sucrose gradient from the faeces of dogs which excreted Giardia cysts and stored at 4 degrees centigrade in Bacto-Casitone medium for no longer than 2 weeks. 18 puppies which excreted Giardia cysts were included in the study and kept in individual cages in order to collect the daily total faeces. The quantitative determination of the cyst excretion was performed as an […], with the modification that the aliquot of the pellet was counted under the microscope with the aid of a Fuchs-Rosenthal hematocytometer. The quantitative determination of the cyst excretion was performed for 4 days before the treatment (day −3 to 0), and the puppies were divided randomly into three groups, taking into consideration the cyst excretion. […] The 6 dogs of the control group remained untreated. The quantitative determination of the cyst excretion was continued from day 1 to day 8 after the treatment.

CC1CS(=O)(=O)CCN1N=Cc1ccc([N+](=O)[O-])o1 (stereo not shown) [nifurtimox]
Activity (Giardia duodenalis [1]; calculated activity on cyst excretion versus infected untreated control, day 1 to 8, single oral dose 50 mg/kg, 50 mg/kg): 90.4%
Σ Giardia cyst excretion D1 (Giardia duodenalis [1]; group line Σ (7 dogs), day 1 after treatment, 50 mg/kg oral on day D0): 1516 cysts per g faeces
Σ Giardia cyst excretion D2 (Giardia duodenalis [1]; group line Σ (7 dogs), day 2 after treatment, 50 mg/kg oral on day D0): 26 cysts per g faeces
Σ Giardia cyst excretion D3 (Giardia duodenalis [1]; group line Σ (7 dogs), day 3 after treatment, 50 mg/kg oral on day D0): 32 cysts per g faeces
Σ Giardia cyst excretion D4 (Giardia duodenalis [1]; group line Σ (7 dogs), day 4 after treatment, 50 mg/kg oral on day D0): 473 cysts per g faeces
Σ Giardia cyst excretion D5 (Giardia duodenalis [1]; group line Σ (7 dogs), day 5 after treatment, 50 mg/kg oral on day D0): 629 cysts per g faeces
Σ Giardia cyst excretion D6 (Giardia duodenalis [1]; group line Σ (7 dogs), day 6 after treatment, 50 mg/kg oral on day D0): 2523 cysts per g faeces
Σ Giardia cyst excretion D7 (Giardia duodenalis [1]; group line Σ (7 dogs), day 7 after treatment, 50 mg/kg oral on day D0): 2403 cysts per g faeces
Σ Giardia cyst excretion D8 (Giardia duodenalis [1]; group line Σ (7 dogs), day 8 after treatment, 50 mg/kg oral on day D0): 3127 cysts per g faeces
Σ Giardia cyst excretion D0 (Giardia duodenalis [1]; group line Σ (7 dogs), day of treatment, 50 mg/kg oral on day D0): 8996 cysts per g faeces
Σ Giardia cyst excretion D−1 (Giardia duodenalis [1]; group line Σ (7 dogs), day −1, before treatment, 50 mg/kg oral on day D0): 39966 cysts per g faeces
Σ Giardia cyst excretion D−2 (Giardia duodenalis [1]; group line Σ (7 dogs), day −2, before treatment, 50 mg/kg oral on day D0): 38482 cysts per g faeces
Σ Giardia cyst excretion D−3 (Giardia duodenalis [1]; group line Σ (7 dogs), day −3, before treatment, 50 mg/kg oral on day D0): 9762 cysts per g faeces
Σ Giardia cyst excretion Day 1 to 8 (Giardia duodenalis [1]; group, after treatment, 50 mg/kg oral once on day 0): 1341 cysts per g faeces
Σ Giardia cyst excretion Day −3 to 0 (Giardia duodenalis [1]; group, before treatment, 50 mg/kg oral once on day 0): 24302 cysts per g faeces
Giardia cyst excretion D1 (Giardia duodenalis [1]; individual dogs, day 1 after treatment, 50 mg/kg oral on day D0, 50 mg/kg): 504 cysts per g faeces and 4928 cysts per g faeces and 152 cysts per g faeces and 0 cysts per g faeces (2×) and 2636 cysts per g faeces and 2391 cysts per g faeces
Giardia cyst excretion D2 (Giardia duodenalis [1]; individual dogs, day 2 after treatment, 50 mg/kg oral on day D0, 50 mg/kg): 0 cysts per g faeces (6×) and 180 cysts per g faeces
Giardia cyst excretion D3 (Giardia duodenalis [1]; individual dogs, day 3 after treatment, 50 mg/kg oral on day D0, 50 mg/kg): 0 cysts per g faeces (6×) and 224 cysts per g faeces
Giardia cyst excretion D4 (Giardia duodenalis [1]; individual dogs, day 4 after treatment, 50 mg/kg oral on day D0, 50 mg/kg): 590 cysts per g faeces and 0 cysts per g faeces (2×) and 652 cysts per g faeces and 424 cysts per g faeces and 1451 cysts per g faeces and 193 cysts per g faeces
Giardia cyst excretion D5 (Giardia duodenalis [1]; individual dogs, day 5 after treatment, 50 mg/kg oral on day D0, 50 mg/kg): 1700 cysts per g faeces and 1094 cysts per g faeces and 0 cysts per g faeces (2×) and 137 cysts per g faeces and 1318 cysts per g faeces and 153 cysts per g faeces
Giardia cyst excretion D6 (Giardia duodenalis [1]; individual dogs, day 6 after treatment, 50 mg/kg oral on day D0, 50 mg/kg): 3693 cysts per g faeces and 2000 cysts per g faeces and 1201 cysts per g faeces and 353 cysts per g faeces and 0 cysts per g faeces and 4102 cysts per g faeces and 6315 cysts per g faeces
Giardia cyst excretion D7 (Giardia duodenalis [1]; individual dogs, day 7 after treatment, 50 mg/kg oral on day D0, 50 mg/kg): 8881 cysts per g faeces and 431 cysts per g faeces and 1873 cysts per g faeces and 608 cysts per g faeces and 191 cysts per g faeces and 4615 cysts per g faeces and 223 cysts per g faeces
Giardia cyst excretion D8 (Giardia duodenalis [1]; individual dogs, day 8 after treatment, 50 mg/kg oral on day D0, 50 mg/kg): 3294 cysts per g faeces and 517 cysts per g faeces and 14181 cysts per g faeces and 0 cysts per g faeces and 1621 cysts per g faeces and 1768 cysts per g faeces and 508 cysts per g faeces
Giardia cyst excretion D0 (Giardia duodenalis [1]; individual dogs, day of treatment, 50 mg/kg oral on day D0, 50 mg/kg): 4397 cysts per g faeces and 8456 cysts per g faeces and 0 cysts per g faeces and 375 cysts per g faeces and 19681 cysts per g faeces and 16419 cysts per g faeces and 13644 cysts per g faeces
Giardia cyst excretion D−1 (Giardia duodenalis [1]; individual dogs, day −1, before treatment, 50 mg/kg oral on day D0, 50 mg/kg): 1306 cysts per g faeces and 14238 cysts per g faeces and 2264 cysts per g faeces and 788 cysts per g faeces and 189275 cysts per g faeces and 45725 cysts per g faeces and 26163 cysts per g faeces
Giardia cyst excretion D−2 (Giardia duodenalis [1]; individual dogs, day −2, before treatment, 50 mg/kg oral on day D0, 50 mg/kg): 907 cysts per g faeces and 923 cysts per g faeces and 5897 cysts per g faeces and 905 cysts per g faeces and 186750 cysts per g faeces and 45672 cysts per g faeces and 28322 cysts per g faeces
Activity (Giardia duodenalis [2]; calculated activity on cyst excretion versus infected untreated control, day 3 to 8, 50 mg/kg oral on days 0, 1 and 2, 50 mg/kg): 98.6%
Σ Giardia cyst excretion D0 (Giardia duodenalis [2]; group line Σ (6 dogs), D0, day of treatment, 50 mg/kg oral on days D0, D1 and D2): 61098 cysts per g faeces
Σ Giardia cyst excretion D1 (Giardia duodenalis [2]; group line Σ (6 dogs), D1, day of treatment, 50 mg/kg oral on days D0, D1 and D2): 872 cysts per g faeces
Σ Giardia cyst excretion D2 (Giardia duodenalis [2]; group line Σ (6 dogs), D2, day of treatment, 50 mg/kg oral on days D0, D1 and D2): 211 cysts per g faeces
Σ Giardia cyst excretion D3 (Giardia duodenalis [2]; group line Σ (6 dogs), D3, after the treatment, 50 mg/kg oral on days D0, D1 and D2): 0 cysts per g faeces
Σ Giardia cyst excretion D4 (Giardia duodenalis [2]; group line Σ (6 dogs), D4, after the treatment, 50 mg/kg oral on days D0, D1 and D2): 135 cysts per g faeces
Σ Giardia cyst excretion D5 (Giardia duodenalis [2]; group line Σ (6 dogs), D5, after the treatment, 50 mg/kg oral on days D0, D1 and D2): 638 cysts per g faeces
Σ Giardia cyst excretion D6 (Giardia duodenalis [2]; group line Σ (6 dogs), D6, after the treatment, 50 mg/kg oral on days D0, D1 and D2): 339 cysts per g faeces
Σ Giardia cyst excretion D7 (Giardia duodenalis [2]; group line Σ (6 dogs), D7, after the treatment, 50 mg/kg oral on days D0, D1 and D2): 54 cysts per g faeces
Σ Giardia cyst excretion D8 (Giardia duodenalis [2]; group line Σ (6 dogs), D8, after the treatment, 50 mg/kg oral on days D0, D1 and D2): 399 cysts per g faeces
Σ Giardia cyst excretion D−1 (Giardia duodenalis [2]; group line Σ (6 dogs), day −1, before treatment, 50 mg/kg oral on days D0, D1 and D2): 37547 cysts per g faeces
Σ Giardia cyst excretion D−2 (Giardia duodenalis [2]; group line Σ (6 dogs), day −2, before treatment, 50 mg/kg oral on days D0, D1 and D2): 28220 cysts per g faeces
Σ Giardia cyst excretion D−3 (Giardia duodenalis [2]; group line Σ (6 dogs), day −3, before treatment, 50 mg/kg oral on days D0, D1 and D2): 49751 cysts per g faeces
Σ Giardia cyst excretion Day 3 to 8 (Giardia duodenalis [2]; group, after treatment, 50 mg/kg oral on days 0, 1 and 2): 261 cysts per g faeces
Σ Giardia cyst excretion Day: −3 to 0 (Giardia duodenalis [2]; group, before treatment, 50 mg/kg oral on days 0, 1 and 2): 44154 cysts per g faeces
Giardia cyst excretion D0 (Giardia duodenalis [2]; individual dogs, D0, day of treatment, 50 mg/kg oral on days D0, D1 and D2, 50 mg/kg): 60420 cysts per g faeces and 675 cysts per g faeces and 89880 cysts per g faeces and 86 cysts per g faeces and 103442 cysts per g faeces and 112084 cysts per g faeces
Giardia cyst excretion D1 (Giardia duodenalis [2]; individual dogs, D1, day of treatment, 50 mg/kg oral on days D0, D1 and D2, 50 mg/kg): 809 cysts per g faeces and 187 cysts per g faeces and 974 cysts per g faeces and 0 cysts per g faeces and 1261 cysts per g faeces and 2000 cysts per g faeces
Giardia cyst excretion D2 (Giardia duodenalis [2]; individual dogs, D2, day of treatment, 50 mg/kg oral on days D0, D1 and D2, 50 mg/kg): 741 cysts per g faeces and 0 cysts per g faeces (4×) and 527 cysts per g faeces
Giardia cyst excretion D3 (Giardia duodenalis [2]; individual dogs, D3, after the treatment, 50 mg/kg oral on days D0, D1 and D2): 0 cysts per g faeces
Giardia cyst excretion D4 (Giardia duodenalis [2]; individual dogs, D4, after the treatment, 50 mg/kg oral on days D0, D1 and D2, 50 mg/kg): 0 cysts per g faeces (4×) and 185 cysts per g faeces and 622 cysts per g faeces
Giardia cyst excretion D5 (Giardia duodenalis [2]; individual dogs, D5, after the treatment, 50 mg/kg oral on days D0, D1 and D2, 50 mg/kg): 229 cysts per g faeces and 0 cysts per g faeces (3×) and 2299 cysts per g faeces and 1299 cysts per g faeces
Giardia cyst excretion D6 (Giardia duodenalis [2]; individual dogs, D6, after the treatment, 50 mg/kg oral on days D0, D1 and D2, 50 mg/kg): 0 cysts per g faeces (3×) and 98 cysts per g faeces and 1842 cysts per g faeces and 93 cysts per g faeces
Giardia cyst excretion D7 (Giardia duodenalis [2]; individual dogs, D7, after the treatment, 50 mg/kg oral on days D0, D1 and D2, 50 mg/kg): 0 cysts per g faeces (4×) and 87 cysts per g faeces and 237 cysts per g faeces
Giardia cyst excretion D8 (Giardia duodenalis [2]; individual dogs, D8, after the treatment, 50 mg/kg oral on days D0, D1 and D2, 50 mg/kg): 517 cysts per g faeces and 0 cysts per g faeces (3×) and 975 cysts per g faeces and 903 cysts per g faeces
Giardia cyst excretion D−1 (Giardia duodenalis [2]; individual dogs, day −1, before treatment, 50 mg/kg oral on days D0, D1 and D2, 50 mg/kg): 25515 cysts per g faeces and 3472 cysts per g faeces and 37203 cysts per g faeces and 8528 cysts per g faeces and 91293 cysts per g faeces and 59273 cysts per g faeces
Giardia cyst excretion D−2 (Giardia duodenalis [2]; individual dogs, day −2, before treatment, 50 mg/kg oral on days D0, D1 and D2, 50 mg/kg): 10685 cysts per g faeces and 8278 cysts per g faeces and 1618 cysts per g faeces and 133 cysts per g faeces and 79689 cysts per g faeces and 68914 cysts per g faeces
